Test results from patent US20240091242A1, “LIPIDS THAT REDUCE LUNG DAMAGE, IMPROVE PULMONARY FUNCTION AND DECREASE PRO-INFLAMMATORY CYTOKINES” (Signpath Pharma, Inc., priority 2021, published 2024).

Tested on: pro-inflammatory cytokines in the BALF
Assay: Multiplex analysis of cytokine levels in BALF, murine LPS ARDS model
Type: in vivo, mouse
Conditions: for IL1-alpha level in BALF / IP-10 level in BALF / MIG level in BALF: in pg/mL (unit assumed)
Source text: C57B16/N mice were obtained from Charles River Laboratories (Montreal, Quebec). Male mice, 20-25 g of body weight, were used throughout the studies. Animals were housed in specific pathogen[…]free conditions, and all experiments were approved by Institutional Animal Care and Use Committee (IPST_SL20200402-1). Animal studies are reported in compliance with […] guidelines.
All delivered mice were kept for one week as an acclimatization period prior to performing any experiments. Animals were housed in a maximum of two mice per cage under a 12[…]h light/12[…]h dark cycle at a temperature of ˜20-22° C. and 40-60% humidity. Food and water were available ad libitum. Each cage of mice was blindly assigned for different treatments or maintained as a control group according to the experimental design. The individual who carried out the experiments was not blinded as to treatment, but data analysis and experiments were otherwise blinded to avoid any bias.
In the ARDS group, mice received Escherichia coli O111:B4 lipopolysaccharide (50 μg in 0.05 mL saline, i.t.), while, in the control group, the animals received an instillation of saline (0.05 mL, i.t.). For intratracheal instillation, mice were slightly anesthetized with isoflurane.
The lipid SPPCT-800 was dissolved in water (low dose—2 mg/ml; high dose—20 mg/ml). For the 24-hour study, two treatment approaches were used. Mice received a single dose of SPPCT-800 (200 mg/kg, per gavage) as prevention (30 minutes before the LPS instillation), or as a single dose of either 20 mg/kg or 200 mg/kg as therapy (3-hour after the LPS instillation). For the 72-hour study, mice received a total of 8 treatments of SPPCT-800 (200 mg/kg) starting at 3-hour after the LPS instillation. Disease progression in mice was assessed by the evaluation of pulmonary functions, blood oxygen saturation, and body weight change. On the terminal day of each study (24 hours or 72 hours), measurement of cytokine levels in the plasma and BALF, and histopathology evaluations were done.
Differential Cell Counts in BALF. The left lung was clamped while 0.9 mL of cold PBS 1×, Protease Inhibitor 1× (SigmaFast®) solution (3×300 μL) was injected so bronchoalveolar lavage fluid (BALF) from the right lobe of the lungs could be collected. The protein assay was performed according to the manufacturer's instruction BCA Protein Assay (Pierce™-#23227). Briefly, a dilution factor of 5 was used (1 part of BALF: 4 part of PBS 1×). 10 μL, of the diluted sample was added into the microplate wells. 200 μL of the working reagent was added into each well. The plate was covered, incubated at 37° C. for 30 minutes. After a cool-down period, the absorbance at 562 nm was rapidly measured using a monochromatic spectrophotometer (SpectraMAX ® plus—Molecular Devices). The total BALF protein content was reported by multiplying the protein concentration by the dilution factor, and then multiplying by the total of BALF volume collected.
Multiplex analysis of mediators. The inventors quantified 31 different mediators in the BALF and plasma by using a Discovery Assay® (Mouse Cytokine and Chemokine Array 31-Plex (MD31), Eve Technologies Corp, Calgary, AB, Canada). The multiplex assay was performed at Eve Technologies using the Bio-Plex™ 200 system (Bio-Rad Laboratories, Inc., Hercules, CA, USA) and a Milliplex Mouse Cytokine/Chemokine kit (Millipore, St. Charles, MO, USA) according to Eve Tech protocol. The 31-plex consisted of Eotaxin, G-CSF, GM-CSF, IFN-γ, IL-1α, IL-1β, IL-2, IL-3, IL-4, IL-5, IL-6, IL-7, IL-9, IL-10, IL-12 (p40), IL-12 (p70), IL-13, IL-15, IL-17, IP-10, KC, LIF, MCP-1, M-CSF, MIG, MIP-1α, MIP-1β, MIP-2,RANTES, TNFα, and VEGF. The assay sensitivities of these markers range from 0.1 pg/mL to 33.3 pg/mL. Individual analytes' values and other assay details are available on Eve Technologies' website and in the Milliplex protocol.
Statistical Analysis. Results are expressed as means±SEM. […]

[1] = 24-hours, Pre: SPP4040 30 minutes before LPS
[2] = 24-hours, Thera: SPP4040 3 hours after LPS
[3] = 72-hours, Thera: eight SPP4040 injections over 72 hours after LPS

CCCCCCCCCCCCCC(=O)OCC(COP(=O)([O-])OCC(COC(=O)CCC)OC(=O)CCC)OC(=O)CCCCCCCCCCCCC.CCCCCCCCCCCCCC(=O)OCC(COP(=O)([O-])OCC(COC(=O)CCC)OC(=O)CCC)OC(=O)CCCCCCCCCCCCC.[Mg+2] (stereo not shown) [SPPCT-800]
Eotaxin level in BALF [1]: 10 ± 1
G-CSF level in BALF [1]: 6468 ± 381
GM-CSF level in BALF [1]: 26 ± 5
IFN gamma level in BALF [1]: 2 ± 1
IL1-beta level in BALF [1]: 69 ± 9
IL2 level in BALF [1]: 1.5 ± 0.2
IL3 level in BALF [1]: 0.4 ± 0.1
IL4 level in BALF [1]: 0.08 ± 0.01
IL5 level in BALF [1]: 10 ± 3
IL6 level in BALF [1]: 856 ± 188
IL7 level in BALF [1]: 1.7 ± 0.3
IL9 level in BALF [1]: 7.0 ± 0.3
IL10 level in BALF [1]: 1.4 ± 0.3
IL12 (p40) level in BALF [1]: 1.6 ± 0.3
IL12 (p70) level in BALF [1]: 7.4 ± 1.0
IL13 level in BALF [1]: 0.7 ± 0.1
IL15 level in BALF [1]: 5.1 ± 0.8
IL17 level in BALF [1]: 8.3 ± 3.2
KC level in BALF [1]: 622 ± 89
LIF level in BALF [1]: 38 ± 8
LIX level in BALF [1]: 94 ± 6
M-CSF level in BALF [1]: 21 ± 3
MCP-1 level in BALF [1]: 462 ± 103
MIP-1alpha level in BALF [1]: 323 ± 52
MIP-1beta level in BALF [1]: 801 ± 208
MIP-2 level in BALF [1]: 771 ± 107
RANTES level in BALF [1]: 45 ± 6
TNF-alpha level in BALF [1]: 91 ± 32
VEGF level in BALF [1]: 33 ± 2
IL1-alpha level in BALF [1]: 183 ± 25
IP-10 level in BALF [1]: 125 ± 10
MIG level in BALF [1]: 6.8 ± 1.5
Eotaxin level in BALF [2]: 14 ± 3
G-CSF level in BALF [2]: 7060 ± 853
GM-CSF level in BALF [2]: 46 ± 9
IFN gamma level in BALF [2]: 3 ± 1
IL1-beta level in BALF [2]: 103 ± 18
IL2 level in BALF [2]: 1.5 ± 0.3
IL3 level in BALF [2]: 0.5 ± 0.1
IL4 level in BALF [2]: 0.10 ± 0.01
IL5 level in BALF [2]: 10 ± 2
IL6 level in BALF [2]: 850 ± 212
IL7 level in BALF [2]: 1.7 ± 0.2
IL9 level in BALF [2]: 8.8 ± 1.3
IL10 level in BALF [2]: 1.4 ± 0.3
IL12 (p40) level in BALF [2]: 2.0 ± 0.3
IL12 (p70) level in BALF [2]: 6.0 ± 1.0
IL13 level in BALF [2]: 1.1 ± 0.2
IL15 level in BALF [2]: 3.1 ± 0.7
IL17 level in BALF [2]: 13.6 ± 5.6
KC level in BALF [2]: 1017 ± 140
LIF level in BALF [2]: 39 ± 12
LIX level in BALF [2]: 67 ± 20
M-CSF level in BALF [2]: 27 ± 6
MCP-1 level in BALF [2]: 494 ± 103
MIP-1alpha level in BALF [2]: 564 ± 132
MIP-1beta level in BALF [2]: 1924 ± 812
MIP-2 level in BALF [2]: 1054 ± 106
RANTES level in BALF [2]: 46 ± 6
TNF-alpha level in BALF [2]: 153 ± 32
VEGF level in BALF [2]: 34 ± 2
IL1-alpha level in BALF [2]: 331 ± 67
IP-10 level in BALF [2]: 163 ± 33
MIG level in BALF [2]: 6.6 ± 2.0
TNF-α levels in the BALF (in words) (72-hour study, p=0.0613): markedly reduced
Eotaxin level in BALF [3]: 6 ± 2
G-CSF level in BALF [3]: 1233 ± 572
GM-CSF level in BALF [3]: 9 ± 1
IFN gamma level in BALF [3]: 12 ± 1
IL1-beta level in BALF [3]: 89 ± 24
IL2 level in BALF [3]: 1.7 ± 0.4
IL3 level in BALF [3]: 0.5 ± 0.2
IL4 level in BALF [3]: 0.24 ± 0.05
IL5 level in BALF [3]: 0.4 ± 0.1
IL6 level in BALF [3]: 276 ± 151
IL7 level in BALF [3]: 2.0 ± 0.5
IL9 level in BALF [3]: 8.5 ± 1.6
IL10 level in BALF [3]: 1.1 ± 0.5
IL12 (p40) level in BALF [3]: 6.0 ± 1.2
IL12 (p70) level in BALF [3]: 15.7 ± 3.9
IL13 level in BALF [3]: 1.1 ± 0.2
IL15 level in BALF [3]: 4.8 ± 2.6
IL17 level in BALF [3]: 53.2 ± 26.9
KC level in BALF [3]: 216 ± 15
LIF level in BALF [3]: 11 ± 7
LIX level in BALF [3]: 25 ± 18
M-CSF level in BALF [3]: 11 ± 1
MCP-1 level in BALF [3]: 84 ± 34
MIP-1alpha level in BALF [3]: 1676 ± 554
MIP-1beta level in BALF [3]: 1561 ± 440
MIP-2 level in BALF [3]: 2649 ± 898
RANTES level in BALF [3]: 57 ± 20
TNF-alpha level in BALF [3]: 62 ± 17
VEGF level in BALF [3]: 11 ± 3
IL1-alpha level in BALF [3]: 576 ± 169
IP-10 level in BALF [3]: 1583 ± 385
MIG level in BALF [3]: 749.7 ± 186.7
MIP-1α and MIP 1-β in the BALF (in words) (at 24 hours): Suppressive effects
GM-CSF in the BALF (in words) (at 24 hours, 200 mg/kg preventive, 20 mg/kg therapeutic and 200 mg/kg therapeutic, P<0.001): highly significant depressions
IFN-γ levels in the BALF (in words) (at 24 hours, P<0.001): profoundly depressed
TNF-α in the BALF (in words) (at 24 hours, P=0.0959): markedly reduced
IL-1β, IL-2, IL-3, IL-4, IL-5, IL-7, IL-9, IL-10, IL-12 (p40), IL-12 (p70), IL-13 and IL-15 in the BALF (in words) (at 24 hours, with the exception of IL-6): major reductions
IFN-γ levels in the BALF (in words) (at 72 hours): Large reductions
MCP-1 in the BALF (in words) (at 72 hours): inhibited
GM-CSF in the BALF (in words) (at 72 hours, P<0.001): significant decreases
G-CSF, VEGF, KC, LIF, LIX and M-CSF in the BALF (in words) (mouse, in vivo): suppressed
